One assay has as its target human mGluR5a receptors (Homo sapiens (Human), UniProt P41594). In words: inhibition of glutamate-induced elevation of intracellular calcium in L(tk-) cells expressing human mGluR5a. In kind it is cell-based. The note with it: for IC50: glutamate-induced intracellular calcium elevation, L(tk-) cells expressing human mGluR5a, read-out: mGluR5 IC50; for inhibition at 10 µM: read-out: mGluR5 % inhibition at 10 μM. Put shortly: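 Compounds tested for inhibition of the glutamate-induced rise in intracellular calcium concentration in L(tk-) cells stably expressing human mGluR5a.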

For a further assay, the target named is human mGluR1 (Homo sapiens (Human), UniProt Q13255). In words: mGluR1 antagonism, L-glutamate induced intracellular calcium increase (FLIPR) in CHO cells stably expressing human mGluR1. In kind it is cell-based. The note with it: for IC50: L-glutamate induced intracellular calcium, CHO cells expressing human mGluR1, FLIPR. In general terms: Calcium flux is commonly read through the fluorescence of an indicator in the cells.
human mGluR1, sequence (Q13255 19-1194): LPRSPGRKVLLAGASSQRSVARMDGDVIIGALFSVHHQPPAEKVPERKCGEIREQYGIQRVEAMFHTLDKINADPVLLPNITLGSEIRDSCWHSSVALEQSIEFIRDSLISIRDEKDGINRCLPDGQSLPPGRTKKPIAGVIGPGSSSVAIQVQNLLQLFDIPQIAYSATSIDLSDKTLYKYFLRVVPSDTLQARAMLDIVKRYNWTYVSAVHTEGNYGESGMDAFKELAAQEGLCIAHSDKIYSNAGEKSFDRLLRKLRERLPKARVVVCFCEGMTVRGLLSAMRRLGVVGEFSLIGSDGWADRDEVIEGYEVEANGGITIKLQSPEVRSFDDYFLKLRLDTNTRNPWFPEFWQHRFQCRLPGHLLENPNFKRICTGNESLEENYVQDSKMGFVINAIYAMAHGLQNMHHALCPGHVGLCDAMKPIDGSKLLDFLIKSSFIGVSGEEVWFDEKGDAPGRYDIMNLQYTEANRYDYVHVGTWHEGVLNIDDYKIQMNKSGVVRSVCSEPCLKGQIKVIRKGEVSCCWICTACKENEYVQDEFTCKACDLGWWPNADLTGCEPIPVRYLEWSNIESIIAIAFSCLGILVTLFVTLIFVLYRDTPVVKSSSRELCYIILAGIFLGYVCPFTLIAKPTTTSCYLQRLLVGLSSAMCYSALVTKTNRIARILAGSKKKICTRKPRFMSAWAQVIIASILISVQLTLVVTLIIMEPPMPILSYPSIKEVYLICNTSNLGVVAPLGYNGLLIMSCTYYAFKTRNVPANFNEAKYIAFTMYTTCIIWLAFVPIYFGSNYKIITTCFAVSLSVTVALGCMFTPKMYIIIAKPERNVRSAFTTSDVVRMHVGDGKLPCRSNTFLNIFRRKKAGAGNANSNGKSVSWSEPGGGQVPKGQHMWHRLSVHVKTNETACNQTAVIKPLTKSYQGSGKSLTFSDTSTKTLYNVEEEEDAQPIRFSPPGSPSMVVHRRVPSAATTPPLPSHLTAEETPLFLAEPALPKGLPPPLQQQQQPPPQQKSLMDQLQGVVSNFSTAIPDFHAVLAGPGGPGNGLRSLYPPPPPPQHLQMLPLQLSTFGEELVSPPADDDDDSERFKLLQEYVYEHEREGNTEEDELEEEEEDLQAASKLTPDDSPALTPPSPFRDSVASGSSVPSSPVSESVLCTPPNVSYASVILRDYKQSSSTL

As a reminder, the IC50 is the concentration at which inhibition is half-maximal. By inhibition is commonly meant the percentage by which the read-out fell short of the control.

human mGluR5a receptors, sequence (P41594 other isoform, or with tags, fused parts or gaps): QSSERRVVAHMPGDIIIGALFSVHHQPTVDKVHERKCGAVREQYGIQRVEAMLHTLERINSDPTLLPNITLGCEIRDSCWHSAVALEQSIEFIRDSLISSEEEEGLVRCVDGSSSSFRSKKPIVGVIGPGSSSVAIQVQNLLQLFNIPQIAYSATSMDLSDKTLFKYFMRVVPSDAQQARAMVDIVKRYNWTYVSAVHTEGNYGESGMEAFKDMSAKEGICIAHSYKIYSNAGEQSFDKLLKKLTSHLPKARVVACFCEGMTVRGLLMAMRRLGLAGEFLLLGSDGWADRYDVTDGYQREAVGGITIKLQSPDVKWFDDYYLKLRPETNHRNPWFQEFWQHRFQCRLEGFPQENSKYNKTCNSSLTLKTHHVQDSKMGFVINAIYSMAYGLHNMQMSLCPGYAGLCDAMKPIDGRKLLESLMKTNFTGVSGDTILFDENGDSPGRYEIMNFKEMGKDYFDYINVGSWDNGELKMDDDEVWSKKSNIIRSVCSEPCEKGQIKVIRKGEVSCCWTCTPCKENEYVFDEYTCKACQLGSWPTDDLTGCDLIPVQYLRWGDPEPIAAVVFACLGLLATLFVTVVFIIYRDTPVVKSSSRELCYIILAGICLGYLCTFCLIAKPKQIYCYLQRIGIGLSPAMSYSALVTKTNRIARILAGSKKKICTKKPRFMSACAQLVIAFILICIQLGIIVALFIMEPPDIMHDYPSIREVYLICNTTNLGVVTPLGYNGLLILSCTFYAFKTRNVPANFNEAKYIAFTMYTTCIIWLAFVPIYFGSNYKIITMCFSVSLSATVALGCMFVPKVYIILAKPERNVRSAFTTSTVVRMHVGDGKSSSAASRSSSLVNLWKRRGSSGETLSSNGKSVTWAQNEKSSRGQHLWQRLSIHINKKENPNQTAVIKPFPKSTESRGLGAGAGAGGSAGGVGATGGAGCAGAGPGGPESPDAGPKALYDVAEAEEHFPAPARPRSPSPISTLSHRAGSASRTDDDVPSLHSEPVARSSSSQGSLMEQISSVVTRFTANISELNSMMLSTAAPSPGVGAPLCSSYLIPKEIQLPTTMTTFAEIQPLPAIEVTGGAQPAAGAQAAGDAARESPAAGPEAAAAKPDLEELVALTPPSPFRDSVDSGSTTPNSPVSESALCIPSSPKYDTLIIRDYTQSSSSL

For `CCCc1cccc2c1CCN1C(=O)CN=C(n3cnc(C)c3)C=C21` [Example 90, 2-(4-methyl-1H-imidazol-1-yl)-9-propyl-7,8-dihydro-[1,4]diazepino[7,1-a]isoquinolin-5(4H)-one], the IC50 at human mGluR5a receptors was 10 nM; at human mGluR1, 1500 nM.

In the case of `Cn1ccc(C2=NCC(=O)N3CCc4c(cccc4N4CCOCC4)C3=C2)n1` [Example 24, 2-(1-methyl-1H-pyrazol-3-yl)-9-morpholino-7,8-dihydro-[1,4]diazepino[7,1-a]isoquinolin-5(4H)-one], the IC50 at human mGluR5a receptors was 35 nM; on human mGluR1, > 10000 nM.

For `COc1cccc(C2=NCC(=O)N3CCc4c(I)cccc4C3=C2)c1` [Example 30, 9-iodo-2-(3-methoxyphenyl)-7,8-dihydro-[1,4]diazepino[7,1-a]isoquinolin-5(4H)-one], the IC50 was found to be 150 nM at human mGluR5a receptors and 1400 nM on human mGluR1.

As to `O=C1CN=C(n2cnc(C3(O)CC3)c2)C=C2c3cccc(C4CC4)c3CCN12` [Example 127, 9-cyclopropyl-2-(4-(1-hydroxycyclopropyl)-1H-imidazol-1-yl)-7,8-dihydro-[1,4]diazepino[7,1-a]isoquinolin-5(4H)-one], the half-inhibitory concentration (IC50) on human mGluR5a receptors came out at 7 nM; on human mGluR1, 1200 nM.

For `Cn1ccc(C2=NCC(=O)N3CCc4c(cccc4C(C)(C)O)C3=C2)n1` [Example 27, 9-(2-hydroxypropan-2-yl)-2-(1-methyl-1H-pyrazol-3-yl)-7,8-dihydro-[1,4]diazepino[7,1-a]isoquinolin-5(4H)-one], the 50% inhibitory concentration (IC50) at human mGluR5a receptors is 437 nM; on human mGluR1 it was > 10000 nM.

On to `COc1cc(C2=NCC(=O)N3CCc4c(cccc4-c4ccc(F)nc4)C3=C2)ccn1` [Example 53, 9-(6-fluoropyridin-3-yl)-2-(2-methoxypyridin-4-yl)-7,8-dihydro-[1,4]diazepino[7,1-a]isoquinolin-5(4H)-one], for which the IC50 was 7 nM on human mGluR5a receptors and > 10000 nM on human mGluR1.

In the case of `COc1cc(C2=NCC(=O)N3CCc4c(cccc4-c4ccncc4F)C3=C2)ccn1` [Example 54, 9-(3-fluoropyridin-4-yl)-2-(2-methoxypyridin-4-yl)-7,8-dihydro-[1,4]diazepino[7,1-a]isoquinolin-5(4H)-one], the IC50 at human mGluR5a receptors is 11 nM; on human mGluR1 it was > 10000 nM.

Consider `O=C1CN=C(n2cnc(C3CC3)c2)C=C2c3ccc(F)c(-c4cnc(F)nc4)c3CCN12` [Example 140], for which the 50% inhibitory concentration (IC50) on human mGluR5a receptors is 93 nM; on human mGluR1 it was > 10000 nM.

For `COc1cccc2c1CCN1C(=O)CN=C(n3cnc(C(C)C)c3)C=C21` [Example 61, 2-(4-isopropyl-1H-imidazol-1-yl)-9-methoxy-7,8-dihydro-[1,4]diazepino[7,1-a]isoquinolin-5(4H)-one], the results for the IC50 at human mGluR5a receptors and at human mGluR1 were 345 nM and 3100 nM, respectively.

As for `COc1cccc2c1CCN1C(=O)CN=C(c3cccc(O)n3)C=C21` [Example 58, 9-methoxy-2-(6-oxo-1,6-dihydropyridin-2-yl)-7,8-dihydro-[1,4]diazepino[7,1-a]isoquinolin-5(4H)-one], at human mGluR5a receptors (LTK), the inhibition at 10 µM is 26%. Besides, the IC50 at human mGluR1 came out at 8900 nM.

Regarding `Cn1cc(C2=NCC(=O)N3CCc4c(CO)cccc4C3=C2)cn1` [Example 46, 9-(hydroxymethyl)-2-(1-methyl-1H-pyrazol-4-yl)-7,8-dihydro-[1,4]diazepino[7,1-a]isoquinolin-5(4H)-one], the values for the IC50 on human mGluR5a receptors and at human mGluR1 were 270 nM and 2200 nM, respectively.

For `COc1ccc(-c2cccc3c2CCN2C(=O)CN=C(n4cnc(C5CC5)c4)C=C32)cn1` [Example 99d, 2-(4-cyclopropyl-1H-imidazol-1-yl)-9-(6-methoxypyridin-3-yl)-7,8-dihydro-[1,4]diazepino[7,1-a]isoquinolin-5(4H)-one], the IC50 is 347 nM on human mGluR5a receptors and > 2000 nM on human mGluR1.

Turning to `O=C1CN=C(c2cccs2)C=C2c3cccc(Cl)c3CCN12` [Example 2, 9-chloro-2-(thiophen-2-yl)-7,8-dihydro-[1,4]diazepino[7,1-a]isoquinolin-5(4H)-one], the results for the IC50 at human mGluR5a receptors and at human mGluR1 were 90 nM and 27 nM, respectively.

As to `CO[C@H](C)c1cn(C2=NCC(=O)N3CCc4c(cccc4C4CC4)C3=C2)cn1` [Example 123, (R)-9-cyclopropyl-2-(4-(1-methoxyethyl)-1H-imidazol-1-yl)-7,8-dihydro-[1,4]diazepino[7,1-a]isoquinolin-5(4H)-one], the IC50 on human mGluR5a receptors worked out at 3 nM; on human mGluR1 it was 7000 nM.

With `O=C1CN=C(n2cnc(C3CCC3)c2)C=C2c3cccc(-c4cccnc4F)c3CCN12` [Example 98, 2-(4-cyclobutyl-1H-imidazol-1-yl)-9-(2-fluoropyridin-3-yl)-7,8-dihydro-[1,4]diazepino[7,1-a]isoquinolin-5(4H)-one], the figures for the IC50 on human mGluR5a receptors and at human mGluR1 were 14 nM and 2400 nM, respectively.

In the case of `Cc1cn(C2=NCC(=O)N3CCc4c(cccc4-c4ccc(F)nc4)C3=C2)cn1` [Example 81, 9-(6-fluoropyridin-3-yl)-2-(4-methyl-1H-imidazol-1-yl)-7,8-dihydro-[1,4]diazepino[7,1-a]isoquinolin-5(4H)-one], the IC50 on human mGluR5a receptors was 36 nM; at human mGluR1 it was > 10000 nM.

Consider `COc1cccc2c1CCN1C(=O)CN=C(c3cc[nH]c(=O)c3)C=C21` [Example 60, 9-methoxy-2-(2-oxo-1,2-dihydropyridin-4-yl)-7,8-dihydro-[1,4]diazepino[7,1-a]isoquinolin-5(4H)-one], for which the inhibition at 10 µM on human mGluR5a receptors (LTK) was determined as 27%; on human mGluR1 (CHO), 15%.

Turning to `COC1(c2cn(C3=NCC(=O)N4CCc5c(cccc5-c5ccc(F)nc5)C4=C3)cn2)CC1` [Example 106a, 9-(6-fluoropyridin-3-yl)-2-(4-(1-methoxycyclopropyl)-1H-imidazol-1-yl)-7,8-dihydro-[1,4]diazepino[7,1-a]isoquinolin-5(4H)-one], the half-maximal inhibitory concentration (IC50) is 68 nM at human mGluR5a receptors and > 10000 nM at human mGluR1.

Regarding `O=C1CN=C(c2cccs2)C=C2c3cccc(Br)c3CCN12` [Example 29, 9-bromo-2-(thiophen-2-yl)-7,8-dihydro-[1,4]diazepino[7,1-a]isoquinolin-5(4H)-one], the IC50 at human mGluR5a receptors turned out to be 90 nM; at human mGluR1, 8 nM.

Take `O=C1CN=C(n2cnc(C3CC3)n2)C=C2c3cccc(-c4cc(F)ccn4)c3CCN12` [Example 135, 2-(3-cyclopropyl-1H-1,2,4-triazol-1-yl)-9-(4-fluoropyridin-2-yl)-7,8-dihydro-[1,4]diazepino[7,1-a]isoquinolin-5(4H)-one]: the values for the IC50 on human mGluR5a receptors and on human mGluR1 were 829 nM and > 10000 nM, respectively.

Consider `CCOCc1cn(C2=NCC(=O)N3CCc4c(cccc4-c4nccs4)C3=C2)cn1` [Example 88j, 2-(4-(ethoxymethyl)-1H-imidazol-1-yl)-9-(thiazol-2-yl)-7,8-dihydro-[1,4]diazepino[7,1-a]isoquinolin-5(4H)-one], for which the IC50 at human mGluR5a receptors came out at 56 nM; on human mGluR1, 1860 nM.

On to `COCCc1cn(C2=NCC(=O)N3CCc4c(cccc4-c4nccs4)C3=C2)cn1` [Example 88h, 2-(4-(2-methoxyethyl)-1H-imidazol-1-yl)-9-(thiazol-2-yl)-7,8-dihydro-[1,4]diazepino[7,1-a]isoquinolin-5(4H)-one], for which the results for the concentration for half-maximal inhibition (IC50) at human mGluR5a receptors and on human mGluR1 were 46 nM and 1050 nM, respectively.

As to `O=C1CN=C(c2ccoc2)C=C2c3cccc(I)c3CCN12` [Example 34, 2-(furan-3-yl)-9-iodo-7,8-dihydro-[1,4]diazepino[7,1-a]isoquinolin-5(4H)-one], the half-maximal inhibitory concentration (IC50) was 41 nM on human mGluR5a receptors and 93 nM at human mGluR1.

As to `O=C1CN=C(n2cnc(C3CC3)n2)C=C2c3cccc(-c4cnc(F)cn4)c3CCN12` [Example 136, 2-(3-cyclopropyl-1H-1,2,4-triazol-1-yl)-9-(5-fluoropyrazin-2-yl)-7,8-dihydro-[1,4]diazepino[7,1-a]isoquinolin-5(4H)-one], the IC50 at human mGluR5a receptors was 19 nM; on human mGluR1, > 2000 nM.

Regarding `O=C1CN=C(n2cnc(C3CC3)c2)C=C2c3ccnc(C4CC4)c3CCN12` [Example 110a, 9-cyclopropyl-2-(4-cyclopropyl-1H-imidazol-1-yl)-7,8-dihydro-[1,4]diazepino[7,1-a][2,6]naphthyridin-5(4H)-one], the IC50 at human mGluR5a receptors was 328 nM; on human mGluR1, > 2000 nM.

Take `CC(C)c1cn(C2=NCC(=O)N3CCc4c(-c5ccc(F)nc5)ccnc4C3=C2)cn1` [Example 94, 4-(6-fluoropyridin-3-yl)-11-(4-isopropyl-1H-imidazol-1-yl)-5,6-dihydro-[1,4]diazepino[1,7-h][1,7]naphthyridin-8(9H)-one]: the IC50 on human mGluR5a receptors is 2700 nM; at human mGluR1 it was > 10000 nM.

`CC(C)c1cn(C2=NCC(=O)N3CCc4c(cccc4-c4nccn4C)C3=C2)cn1` [Example 73, 2-(4-isopropyl-1H-imidazol-1-yl)-9-(1-methyl-1H-imidazol-2-yl)-7,8-dihydro-[1,4]diazepino[7,1-a]isoquinolin-5(4H)-one]: the IC50 is 3500 nM on human mGluR5a receptors and > 10000 nM at human mGluR1.

For the compound `O=C1CN=C(n2cnc(C3CC3)c2)C=C2c3cccc(-c4cc(C(F)(F)F)n[nH]4)c3CCN12` [Example 99b, 2-(4-cyclopropyl-1H-imidazol-1-yl)-9-(3-(trifluoromethyl)-1H-pyrazol-5-yl)-7,8-dihydro-[1,4]diazepino[7,1-a]isoquinolin-5(4H)-one], the inhibition at 2 µM at human mGluR5a receptors (LTK, read-out: mGluR5 % inhibition at 2 μM) was 41%. On human mGluR1, the IC50 was > 10000 nM.

In the case of `O=C1CN=C(n2cnc(C3CC3)c2)C=C2c3cccc(-c4cnccc4F)c3CCN12` [Example 88k, 2-(4-cyclopropyl-1H-imidazol-1-yl)-9-(4-fluoropyridin-3-yl)-7,8-dihydro-[1,4]diazepino[7,1-a]isoquinolin-5(4H)-one], the IC50 stood at 69 nM at human mGluR5a receptors and 5860 nM at human mGluR1.

With `O=C1CN=C(n2cnc(C3CC3)c2)C=C2c3cccc(-c4cncc(F)n4)c3CCN12` [Example 141, 2-(4-cyclopropyl-1H-imidazol-1-yl)-9-(6-fluoropyrazin-2-yl)-7,8-dihydro-[1,4]diazepino[7,1-a]isoquinolin-5(4H)-one], the IC50 on human mGluR5a receptors amounted to 26 nM; at human mGluR1 it was 402 nM.
